In the NIST ThermoML archive (doi:10.1016/j.tca.2012.12.008):

Experiment: xn = mol fraction of the nth substance listed
Conditions: 101 kPa, Liquid; for viscosity: Capillary tube (Ostwald / Ubbelohde) method; for mass density: Vibrating tube method

CCCCCC(C)O (configuration not stated) [2-heptanol] + CCC(C)=O
Conditions | mass density, 298.15 K [kg/m3] | mass density, 303.15 K [kg/m3] | mass density, 308.15 K [kg/m3] | mass density, 313.15 K [kg/m3] | viscosity, 298.15 K [mPa·s] | viscosity, 303.15 K [mPa·s] | viscosity, 308.15 K [mPa·s] | viscosity, 313.15 K [mPa·s]
x2 = 0 | 813.18 | 809.26 | 805.01 | 801.14 | 5.003 | 4.152 | 3.478 | 2.853
x2 = 0.0834 | 811.4 | 807.5 | 803.22 | 799.4 | 3.89 | 3.282 | 2.749 | 2.282
x2 = 0.1619 | 809.92 | 805.97 | 801.7 | 797.73 | 3.091 | 2.614 | 2.21 | 1.846
x2 = 0.2426 | 808.4 | 804.47 | 800.16 | 796.12 | 2.441 | 2.083 | 1.758 | 1.478
x2 = 0.3491 | 806.63 | 802.53 | 798.16 | 794.11 | 1.793 | 1.528 | 1.303 | 1.095
x2 = 0.4375 | 805.3 | 801.03 | 796.6 | 792.53 | 1.367 | 1.184 | 1.021 | 0.895
x2 = 0.5661 | 803.5 | 799.1 | 794.57 | 790.44 | 0.901 | 0.818 | 0.746 | 0.684
x2 = 0.6502 | 802.41 | 797.92 | 793.35 | 789.19 | 0.712 | 0.659 | 0.613 | 0.581
x2 = 0.7371 | 801.4 | 796.84 | 792.26 | 788.05 | 0.592 | 0.552 | 0.513 | 0.481
x2 = 0.8498 | 800.4 | 795.59 | 790.95 | 786.69 | 0.451 | 0.434 | 0.416 | 0.399
x2 = 0.9401 | 799.73 | 794.95 | 790.35 | 786 | 0.398 | 0.386 | 0.373 | 0.361

CCCCC(C)O (configuration not stated) [2-hexanol] + CCC(C)=O
Conditions | mass density, 298.15 K [kg/m3] | mass density, 303.15 K [kg/m3] | mass density, 308.15 K [kg/m3] | mass density, 313.15 K [kg/m3] | viscosity, 298.15 K [mPa·s] | viscosity, 303.15 K [mPa·s] | viscosity, 308.15 K [mPa·s] | viscosity, 313.15 K [mPa·s]
x2 = 0 | 810.14 | 806.13 | 802.06 | 797.96 | 4.101 | 3.411 | 2.819 | 2.219
x2 = 0.0874 | 808.49 | 804.57 | 800.48 | 796.34 | 3.085 | 2.587 | 2.145 | 1.714
x2 = 0.1661 | 807.21 | 803.17 | 799.05 | 794.87 | 2.413 | 2.035 | 1.684 | 1.358
x2 = 0.2482 | 805.92 | 801.8 | 797.59 | 793.4 | 1.909 | 1.63 | 1.361 | 1.086
x2 = 0.355 | 804.36 | 800.03 | 795.83 | 791.6 | 1.454 | 1.232 | 1.027 | 0.826
x2 = 0.4463 | 803.2 | 798.8 | 794.5 | 790.25 | 1.178 | 0.998 | 0.831 | 0.692
x2 = 0.5671 | 801.84 | 797.36 | 792.94 | 788.71 | 0.889 | 0.775 | 0.678 | 0.592
x2 = 0.6534 | 801.04 | 796.47 | 792.02 | 787.75 | 0.718 | 0.647 | 0.587 | 0.536
x2 = 0.7422 | 800.4 | 795.74 | 791.22 | 786.94 | 0.603 | 0.564 | 0.525 | 0.487
x2 = 0.8547 | 799.91 | 795.09 | 790.45 | 786.14 | 0.505 | 0.479 | 0.449 | 0.419
x2 = 0.942 | 799.62 | 794.76 | 790.06 | 785.68 | 0.429 | 0.41 | 0.388 | 0.366

CCC(C)=O [butanone] + CC(C)O
Conditions | mass density, 298.15 K [kg/m3] | mass density, 303.15 K [kg/m3] | mass density, 308.15 K [kg/m3] | mass density, 313.15 K [kg/m3] | viscosity, 298.15 K [mPa·s] | viscosity, 303.15 K [mPa·s] | viscosity, 308.15 K [mPa·s] | viscosity, 313.15 K [mPa·s]
x1 = 0.0819 | 782.25 | 777.85 | 772.94 | 768.48 | 1.657 | 1.503 | 1.371 | 1.245
x1 = 0.1607 | 783.38 | 778.97 | 774.09 | 769.53 | 1.358 | 1.286 | 1.208 | 1.139
x1 = 0.24 | 784.62 | 780.11 | 775.17 | 770.66 | 1.142 | 1.11 | 1.077 | 1.041
x1 = 0.349 | 786.42 | 781.79 | 776.85 | 772.33 | 0.939 | 0.924 | 0.909 | 0.895
x1 = 0.4405 | 788.05 | 783.31 | 778.38 | 773.86 | 0.818 | 0.807 | 0.795 | 0.784
x1 = 0.5593 | 790.28 | 785.48 | 780.55 | 776.07 | 0.702 | 0.686 | 0.669 | 0.654
x1 = 0.6511 | 792.07 | 787.24 | 782.38 | 777.9 | 0.626 | 0.607 | 0.587 | 0.569
x1 = 0.7392 | 793.87 | 789.03 | 784.21 | 779.74 | 0.551 | 0.539 | 0.527 | 0.515
x1 = 0.8496 | 796.19 | 791.36 | 786.58 | 782.16 | 0.465 | 0.456 | 0.448 | 0.44
x1 = 0.937 | 798.09 | 793.22 | 788.46 | 784.11 | 0.417 | 0.406 | 0.396 | 0.386
x1 = 1 | 799.48 | 794.63 | 789.9 | 785.52 | 0.381 | 0.368 | 0.352 | 0.339

CCC(C)=O [butanone] + CCC(C)O
Conditions | mass density, 298.15 K [kg/m3] | mass density, 303.15 K [kg/m3] | mass density, 308.15 K [kg/m3] | mass density, 313.15 K [kg/m3] | viscosity, 298.15 K [mPa·s] | viscosity, 303.15 K [mPa·s] | viscosity, 308.15 K [mPa·s] | viscosity, 313.15 K [mPa·s]
x1 = 0.0833 | 801.7 | 797.1 | 792.46 | 788.12 | 2.502 | 2.135 | 1.832 | 1.525
x1 = 0.161 | 800.91 | 796.26 | 791.63 | 787.2 | 2.081 | 1.791 | 1.571 | 1.359
x1 = 0.2402 | 800.19 | 795.56 | 790.81 | 786.44 | 1.749 | 1.533 | 1.355 | 1.206
x1 = 0.3498 | 799.4 | 794.77 | 789.93 | 785.56 | 1.428 | 1.284 | 1.143 | 1.018
x1 = 0.441 | 798.92 | 794.27 | 789.42 | 785.03 | 1.213 | 1.078 | 0.976 | 0.895
x1 = 0.5609 | 798.55 | 793.86 | 789.01 | 784.61 | 0.981 | 0.886 | 0.82 | 0.76
x1 = 0.6498 | 798.44 | 793.74 | 788.83 | 784.44 | 0.824 | 0.768 | 0.706 | 0.664
x1 = 0.7398 | 798.47 | 793.74 | 788.83 | 784.43 | 0.671 | 0.638 | 0.603 | 0.572
x1 = 0.8501 | 798.73 | 793.92 | 789.09 | 784.68 | 0.528 | 0.506 | 0.486 | 0.465
x1 = 0.9405 | 799.06 | 794.23 | 789.47 | 785.05 | 0.434 | 0.417 | 0.397 | 0.38
x1 = 1 | 799.48 | 794.63 | 789.9 | 785.52 | 0.381 | 0.368 | 0.352 | 0.339
